In patent publication US8183242B2, “Aminopyrimidine compounds and their salts, process for preparation and pharmaceutical use thereof” (priority 2004, dated 2012):
Marks after values point to notes of the source that are not given here.

How the values were obtained:
[1] = system: human chronic myelogenous leukemia K562 cell (expressing P210 Bcr-Abl tyrosine kinase); test: MTT assay, inhibition of proliferation of K562 cells cultured in vitro
Experimental: (§1) Cells were grown in a medium containing 10% fetal bovine serum and were kept in the logarithmic growth phase.
(§2) The cells were pre-incubated in an incubator at 37° C. in 5% CO2 for 24 hours. The drug with 6 to 8 different concentrations was added and treated continuously for 48 h.
(§3) After the treatment of the drug, take photos by a phase contrast microscope. Then MTT treatment solution was added into each well and after 4 hours lysed the cells by DMSO. The OD values for each well were determined by using Plarstar ELIASA.

[2] = system: transplant tumor of human granulocytic leukemia K562; test: Test Example 2: therapeutic effect on naked mice with transplant tumor of human granulocytic leukemia K562; details: for Body weight before dissection d0 / TV x ± SD d0: d0 = grouping and first administration; for Body weight before dissection dn / TV x ± SD dn: dn = day 21; for CR: complete extinction (complete resolution) of tumor: end of experiment (Day 21), mice with CR/group; for mice in which the tumor was extinct: 75 mg/kg oral gavage once per day
Experimental: Animals were allowed to acclimatize the environment for one week, and then the animals were inoculated subcutaneously human leukemia K562 cells. When the tumors have grown to a volume of 100-300 mm^3, the animals were randomly grouped (d0). The naked mice were administered by oral gavage. […] The animals were administered once per day for 21 days. Measured the volume of the tumors 2-3 times per week and weighed the animals followed by recording the data. The formula for calculating the volume of tumor (V): V=½×a×b^2, wherein a represents the length and b represents the width.
The mice were continuously administered by oral gavage once per day for 21 days.

[3] = system: human acute promyelocytic leukemia HL-60 cell; test: MTT assay, inhibition of proliferation of HL-60 cells cultured in vitro (Bcr-Abl negative control model); type: cell-based; details: drug 48 h
Experimental: HL-60: human acute promyelocytic leukemia Cell. The expression of Bcr-Abl tyrosine kinase is negative.
as §1, §2, §3
Concentration setting: 5-8 concentrations within the range of 0.001-10 μM were set, and each concentration is set in triplicate.

[4] = system: transplant tumor of human granulocytic leukemia K562; test: Test Example 3: therapeutic effect of HH-GV-678 and Gleevec on naked mice with transplant tumor of human granulocytic leukemia K562; details: for Body weight before dissection d0 / TV x ± SD d0: d0 = grouping and first administration; for Body weight before dissection dn / TV x ± SD dn: dn = day 21; for CR: complete resolution: end of experiment, mice with CR/group
From the text: Animals were allowed to acclimatize the environment for one week, and then the animals were inoculated subcutaneously human leukemia K562 cells. When the tumors have grown to a volume of 100-300 mm^3, the animals were randomly grouped (d0). […] Measured the volume of the tumors 2-3 times per week and weighed the animals followed by recording the data. The formula for calculating the volume of tumor (V): V =1/2×a×b^2, wherein a represents the length and b represents the width.

[5] = 75 mg/kg oral gavage once per day 21 days
[6] = 150 mg/kg oral gavage once per day 21 days
[7] = 150 mg/kg each time, oral gavage twice per day 21 days
[8] = 37.5 mg/kg oral gavage once per day 21 days

CS(=O)(=O)O.Cc1ncc(NC(=O)c2ccc(CN3CCN(C)CC3)c(Cl)c2)cc1Nc1nccc(-c2cccnc2)n1 [HH-GV-E, 4-((4-methylpiperazin-1-yl)methyl)-N-[6-methyl-5-[[4-(pyrid-3-yl)pyrimidin-2-yl]amino]pyrid-3-yl]-3-chloro-benzamide methanesulfonic acid salt]
selectivity for the target ([1]; HL-60 versus K562 cells): > 125 folds | IC50 ([1]; Homo sapiens, K562, 48 h, read-out: IC50, inhibition of proliferation of leukemia cells): 0.08 µM | RTV x ± SD [2, 5]: 9.60 ± 6.51 | T/C [2, 5]: 103.6% | Body weight before dissection d0 [2, 5]: 18.5 gram | TV x ± SD d0 [2, 5]: 130 ± 58 mm^3 | Body weight before dissection dn [2, 5]: 14.2 gram | TV x ± SD dn [2, 5]: 954 ± 242 mm^3 | CR: complete extinction (complete resolution) of tumor [2, 5]: 0/6 | RTV x ± SD [2, 6]: 3.24 ± 1.65 | T/C [2, 6]: 47.4* % | effect on the growth of K562 tumor [2, 6]: significant inhibition effect on the growth of K562 tumor | Body weight before dissection d0 [2, 6]: 18.8 gram | TV x ± SD d0 [2, 6]: 149 ± 31 mm^3 | Body weight before dissection dn [2, 6]: 15.2 gram | TV x ± SD dn [2, 6]: 455 ± 214 mm^3 | CR: complete extinction (complete resolution) of tumor [2, 6]: 0/6 | IC50 [3]: > 10 µM

Cc1ccc(NC(=O)c2ccc(CN3CCN(C)CC3)cc2)cc1Nc1nccc(-c2cccnc2)n1 [Gleevec, Imatinib, reference compound]
RTV x ± SD [2, 5]: 8.56 ± 7.09 | T/C [2, 5]: 121.0% | Body weight before dissection d0 [2, 5]: 19.3 gram | TV x ± SD d0 [2, 5]: 153 ± 68 mm^3 | Body weight before dissection dn [2, 5]: 15.6 gram | TV x ± SD dn [2, 5]: 971 ± 154 mm^3 | CR: complete extinction (complete resolution) of tumor [2, 5]: 0/6 | mice died ([2]; 150 mg/kg group, Day 18, death considered to be related to the tumor): 1/6 | RTV x ± SD [2, 6]: 8.30 ± 5.65 | T/C [2, 6]: 117.7% | Body weight before dissection d0 [2, 6]: 20.3 gram | TV x ± SD d0 [2, 6]: 127 ± 45 mm^3 | Body weight before dissection dn [2, 6]: 16.3 gram | TV x ± SD dn [2, 6]: 824 ± 170 mm^3 | CR: complete extinction (complete resolution) of tumor [2, 6]: 0/6 | effect on the growth of the tumor ([2]; present protocol: 75 and 150 mg/kg oral gavage once per day 21 days): did not have significant effect on the growth of the tumor | T/C [4, 7]: 34.2* % | Body weight before dissection d0 [4, 7]: 24.1 gram | TV x ± SD d0 [4, 7]: 144 ± 33 mm^3 | Body weight before dissection dn [4, 7]: 20.6 gram | TV x ± SD dn [4, 7]: 501 ± 347 mm^3 | CR: complete resolution [4, 7]: 2/8 | complete resolution (CR) of tumors, mice of the group ([4]; 150 mg/kg each time, oral gavage twice per day, Day 12): 1/8

CS(=O)(=O)O.Cc1ncc(NC(=O)c2ccc(CN3CCN(C)CC3)c(C(F)(F)F)c2)cc1Nc1nccc(-c2cccnc2)n1 [HH-GV-F, 4-((4-methylpiperazin-1-yl)methyl)-N-[6-methyl-5-[[4-(pyrid-3-yl)pyrimidin-2-yl]amino]pyrid-3-yl]-3-(trifluoromethyl)-benzamide methanesulfonic acid salt]
RTV x ± SD [2, 8]: 2.85 ± 3.18 | T/C [2, 8]: 40.4* % | effect on the growth of K562 tumor [2, 8]: significantly inhibited the growth of K562 tumor, but did not cause the tumor extinct | Body weight before dissection d0 [2, 8]: 19.3 gram | TV x ± SD d0 [2, 8]: 119 ± 51 mm^3 | Body weight before dissection dn [2, 8]: 18.8 gram | TV x ± SD dn [2, 8]: 294 ± 255 mm^3 | CR: complete extinction (complete resolution) of tumor [2, 8]: 0/6 | RTV x ± SD [2, 5]: 1.38 ± 3.08 | T/C [2, 5]: 19.6* % | Body weight before dissection d0 [2, 5]: 19.2 gram | TV x ± SD d0 [2, 5]: 127 ± 46 mm^3 | Body weight before dissection dn [2, 5]: 19.3 gram | TV x ± SD dn [2, 5]: 95 ± 199 mm^3 | CR: complete extinction (complete resolution) of tumor [2, 5]: 4/6 | mice in which the tumor was extinct ([2]; Day 9): 1/6 | mice in which the tumor was extinct ([2]; Day 12): 4/6 | mice in which the tumor was extinct ([2]; Day 15): 5/6 | IC50 [3]: ≥ 10 µM | RTV x ± SD [4, 5]: 0 ± 0 | T/C [4, 5]: 0* % | Body weight before dissection d0 [4, 5]: 24.0 gram | TV x ± SD d0 [4, 5]: 168 ± 65 mm^3 | Body weight before dissection dn [4, 5]: 24.7 gram | TV x ± SD dn [4, 5]: 0 ± 0 mm^3 | CR: complete resolution [4, 5]: 7/8 | complete resolution (CR) of tumors, mice of the group ([4]; 75 mg/kg oral gavage once per day, Day 6): 3/8 | complete resolution (CR) of tumors, mice of the group ([4]; 75 mg/kg oral gavage once per day, Day 9): 7/8 | complete resolution (CR) of tumors, mice of the group ([4]; 75 mg/kg oral gavage once per day, Day 12): 8/8 | RTV x ± SD [4, 6]: 0 ± 0 | T/C [4, 6]: 0* % | Body weight before dissection d0 [4, 6]: 24.3 gram | TV x ± SD d0 [4, 6]: 152 ± 37 mm^3 | Body weight before dissection dn [4, 6]: 23.9 gram | TV x ± SD dn [4, 6]: 0 ± 0 mm^3 | CR: complete resolution [4, 6]: 8/8 | complete resolution (CR) of tumors, mice of the group ([4]; 150 mg/kg oral gavage once per day, Day 6): 6/8 | complete resolution (CR) of tumors, mice of the group ([4]; 150 mg/kg oral gavage once per day, Day 9): 8/8 | toxicity ([4]; mouse, in vivo): relatively lower
